PubChem BioAssay AID256 (DTP/NCI, 2004)
Where “and” joins values, the source holds several entries; their conditions need not be identical. Equal values may be shown once. Inconclusive results and toxic doses are left out.

Test system: CD2F1 mice, L1210 leukemia ip, survival T/C
Assay: NCI In Vivo Anticancer Drug Screen. Data for tumor model L1210 Leukemia (intraperitoneal) in CD2F1 (CDF1) mice
Conditions: higher = longer survival
Method in brief: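 Compound-dosed mice with transplantable tumor versus matched vehicle controls; endpoint ratio T/C reported.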

[1] = endpoint: mean survival time, dose: 100.0 mg/kg/injection, schedule: Q01DX001 (ip), vehicle: saline with Tween-80
[2] = endpoint: mean survival time, dose: 200.0 mg/kg/injection, schedule: Q01DX001 (ip), vehicle: saline with Tween-80
[3] = endpoint: mean survival time, dose: 100.0 mg/kg/injection, schedule: Q04DX003 (ip), vehicle: saline with Tween-80
[4] = endpoint: mean survival time, dose: 200.0 mg/kg/injection, schedule: Q04DX003 (ip), vehicle: saline with Tween-80
[5] = endpoint: mean survival time, dose: 400.0 mg/kg/injection, schedule: Q04DX003 (ip), vehicle: saline with Tween-80
[6] = endpoint: mean survival time, dose: 25.0 mg/kg/injection, schedule: Q01DX009 (ip), vehicle: saline with Tween-80
[7] = endpoint: mean survival time, dose: 50.0 mg/kg/injection, schedule: Q01DX009 (ip), vehicle: saline with Tween-80
[8] = endpoint: mean survival time, dose: 100.0 mg/kg/injection, schedule: Q01DX009 (ip), vehicle: saline with Tween-80
[9] = endpoint: mean survival time, dose: 200.0 mg/kg/injection, schedule: Q01DX009 (ip), vehicle: saline with Tween-80
[10] = endpoint: mean survival time, dose: 100.0 mg/kg/injection, schedule: Q04DX002 (ip), vehicle: saline with Tween-80

Nc1cc2c(c[n+](CCCCCCCC[n+]3cc4c5ccccc5c(N)cc4c4ccccc43)c3ccccc23)c2ccccc12
T/C (endpoint: mean survival time, dose: 0.78 mg/kg/injection, schedule: Q04DX003 (ip), vehicle: other): 114 % of control | T/C (endpoint: mean survival time, dose: 1.56 mg/kg/injection, schedule: Q04DX003 (ip), vehicle: other): 157 % of control | T/C (endpoint: mean survival time, dose: 3.13 mg/kg/injection, schedule: Q04DX003 (ip), vehicle: other): 124 % of control | T/C (endpoint: mean survival time, dose: 12.5 mg/kg/injection, schedule: Q04DX003 (ip), vehicle: other): 157 % of control | T/C (endpoint: mean survival time, dose: 50.0 mg/kg/injection, schedule: Q04DX003 (ip), vehicle: other): 124 % of control and 103 % of control

O=C(O)/C=C/c1ccc([N+](=O)[O-])o1
T/C (endpoint: mean survival time, dose: 25.0 mg/kg/injection, schedule: Q01DX001 (ip), vehicle: saline with Tween-80): 96 % of control | T/C (endpoint: mean survival time, dose: 50.0 mg/kg/injection, schedule: Q01DX001 (ip), vehicle: saline with Tween-80): 89 % of control | T/C [1]: 115 % of control and 98 % of control | T/C [2]: 94 % of control

COc1ccc(C(=O)C(CN(C)C)CN(C)C)cc1
T/C (endpoint: median survival time, dose: 3.12 mg/kg/injection, schedule: Q01DX009 (ip), vehicle: saline): 96 % of control | T/C (endpoint: median survival time, dose: 6.25 mg/kg/injection, schedule: Q01DX009 (ip), vehicle: saline): 103 % of control | T/C (endpoint: median survival time, dose: 12.5 mg/kg/injection, schedule: Q01DX009 (ip), vehicle: saline): 104 % of control | T/C (endpoint: median survival time, dose: 25.0 mg/kg/injection, schedule: Q01DX009 (ip), vehicle: saline): 114 % of control

C=CCC#N
T/C (endpoint: mean survival time, dose: 100.0 mg/kg/injection, schedule: Q04DX003 (ip), vehicle: saline sonified): 90 % of control

Cn1cc(C2NC(=O)c3ccccc3N2)c2ccccc21 (stereo unspecified)
T/C (endpoint: median survival time, dose: 100.0 mg/kg/injection, schedule: Q01DX009 (ip), vehicle: Klucel (hydroxypropylcellulose) (HPC)): 119 % of control

COc1cccc(CN2CCNCC2)c1
T/C (endpoint: mean survival time, dose: 25.0 mg/kg/injection, schedule: Q01DX005 (ip), vehicle: water): 102 % of control | T/C (endpoint: mean survival time, dose: 50.0 mg/kg/injection, schedule: Q01DX005 (ip), vehicle: water): 102 % of control | T/C (endpoint: mean survival time, dose: 100.0 mg/kg/injection, schedule: Q01DX005 (ip), vehicle: water): 102 % of control

CCCCC(OC(=O)c1ccc([N+](=O)[O-])cc1)C(C)[N+](=O)[O-] (stereo unspecified)
T/C [3]: 104 % of control | T/C [4]: 97 % of control | T/C [5]: 104 % of control

CCCCCC1SC1CC1SC1CCCCCCCC(=O)N(CCCC)CCCC (stereo unspecified)
T/C (endpoint: mean survival time, dose: 75.0 mg/kg/injection, schedule: Q04DX003 (ip), vehicle: saline): 98 % of control | T/C (endpoint: mean survival time, dose: 150.0 mg/kg/injection, schedule: Q04DX003 (ip), vehicle: saline): 107 % of control | T/C (endpoint: mean survival time, dose: 300.0 mg/kg/injection, schedule: Q04DX003 (ip), vehicle: saline): 97 % of control

NC1CC(CO)C(O)C1O (stereo unspecified)
T/C (endpoint: mean survival time, dose: 75.0 mg/kg/injection, schedule: Q01DX001 (ip), vehicle: saline): 101 % of control | T/C (endpoint: mean survival time, dose: 150.0 mg/kg/injection, schedule: Q01DX001 (ip), vehicle: saline): 103 % of control | T/C (endpoint: mean survival time, dose: 300.0 mg/kg/injection, schedule: Q01DX001 (ip), vehicle: saline): 107 % of control

CCCCCCCCC[n+]1ccc(C(N)=O)cc1
T/C [6]: 103 % of control | T/C [7]: 95 % of control | T/C [8]: 95 % of control

O=C(O)C(O)C(O)C(O)C(O)CO (stereo unspecified)
T/C [7]: 109 % of control | T/C [8]: 97 % of control | T/C [9]: 106 % of control

COc1ccc(N=C2C=CC(=O)O2)cc1
T/C [6]: 95 % of control | T/C [7]: 100 % of control | T/C [8]: 97 % of control | T/C [3]: 101 % of control

Cc1ccc(S(=O)(=O)N/N=C2\CC3CCC2(C)C3(C)C)cc1 (stereo unspecified)
T/C [7]: 96 % of control | T/C [8]: 88 % of control | T/C [9]: 100 % of control

COC(=O)c1cn(C2OC(CO)C(O)C2O)c2ncnc(N)c12 (stereo unspecified)
T/C (endpoint: mean survival time, dose: 3.12 mg/kg/injection, schedule: Q01DX009 (ip), vehicle: water): 104 % of control | T/C (endpoint: mean survival time, dose: 6.25 mg/kg/injection, schedule: Q01DX009 (ip), vehicle: water): 112 % of control | T/C (endpoint: mean survival time, dose: 12.5 mg/kg/injection, schedule: Q01DX009 (ip), vehicle: water): 122 % of control

CC(=O)Nc1ccc(C)c(Cl)c1
T/C [8]: 96 % of control | T/C [3]: 101 % of control | T/C [9]: 94 % of control | T/C [4]: 103 % of control | T/C (endpoint: mean survival time, dose: 400.0 mg/kg/injection, schedule: Q01DX009 (ip), vehicle: saline with Tween-80): 88 % of control | T/C [5]: 101 % of control

COc1ccc(NC(=O)Oc2ccccc2C(C)C)cc1
T/C [6]: 97 % of control | T/C (endpoint: mean survival time, dose: 25.0 mg/kg/injection, schedule: Q04DX002 (ip), vehicle: saline with Tween-80): 107 % of control | T/C [7]: 97 % of control | T/C (endpoint: mean survival time, dose: 50.0 mg/kg/injection, schedule: Q04DX002 (ip), vehicle: saline with Tween-80): 111 % of control | T/C [8]: 97 % of control | T/C [10]: 90 % of control and 96 % of control | T/C (endpoint: mean survival time, dose: 400.0 mg/kg/injection, schedule: Q04DX002 (ip), vehicle: saline with Tween-80): 93 % of control

O=c1[nH]cc(NCCCCc2ccccc2)c(=O)[nH]1
T/C [1]: 94 % of control | T/C [2]: 95 % of control | T/C (endpoint: mean survival time, dose: 400.0 mg/kg/injection, schedule: Q01DX001 (ip), vehicle: saline with Tween-80): 92 % of control

O=P1(Oc2ccccc2)NCC(Br)CO1 (stereo unspecified)
T/C (endpoint: mean survival time, dose: 18.8 mg/kg/injection, schedule: Q01DX001 (ip), vehicle: other): 98 % of control | T/C (endpoint: mean survival time, dose: 31.25 mg/kg/injection, schedule: Q01DX001 (ip), vehicle: other): 104 % of control | T/C (endpoint: mean survival time, dose: 37.5 mg/kg/injection, schedule: Q01DX001 (ip), vehicle: other): 98 % of control | T/C (endpoint: mean survival time, dose: 62.5 mg/kg/injection, schedule: Q01DX001 (ip), vehicle: other): 107 % of control | T/C (endpoint: mean survival time, dose: 75.0 mg/kg/injection, schedule: Q01DX001 (ip), vehicle: other): 105 % of control | T/C (endpoint: mean survival time, dose: 125.0 mg/kg/injection, schedule: Q01DX001 (ip), vehicle: other): 94 % of control | T/C (endpoint: mean survival time, dose: 150.0 mg/kg/injection, schedule: Q01DX001 (ip), vehicle: other): 113 % of control | T/C (endpoint: mean survival time, dose: 250.0 mg/kg/injection, schedule: Q01DX001 (ip), vehicle: other): 100 % of control | T/C (endpoint: mean survival time, dose: 300.0 mg/kg/injection, schedule: Q01DX001 (ip), vehicle: other): 107 % of control | T/C (endpoint: mean survival time, dose: 500.0 mg/kg/injection, schedule: Q01DX001 (ip), vehicle: other): 100 % of control

Nc1ncnc2nc(-c3ccccc3)[nH]c12
T/C [3]: 100 % of control | T/C [4]: 99 % of control | T/C [5]: 99 % of control

CC(NC(=O)OCc1ccccc1)C(=O)NC(CC(=O)O)C(=O)O (stereo unspecified)
T/C (endpoint: mean survival time, dose: 100.0 mg/kg/injection, schedule: Q04DX003 (ip), vehicle: saline): 92 % of control

COc1ccc(C(=O)CC(C#N)c2ccc(OC)c(OC)c2)cc1OC (stereo unspecified)
T/C [3]: 98 % of control | T/C [4]: 101 % of control | T/C [5]: 98 % of control

C[As](C)[Se]CC1OC(O)C(O)C(O)C1O (stereo unspecified)
T/C (endpoint: mean survival time, dose: 12.5 mg/kg/injection, schedule: Q04DX003 (ip), vehicle: saline with Tween-80): 97 % of control | T/C (endpoint: mean survival time, dose: 25.0 mg/kg/injection, schedule: Q04DX003 (ip), vehicle: saline with Tween-80): 101 % of control | T/C (endpoint: mean survival time, dose: 50.0 mg/kg/injection, schedule: Q04DX003 (ip), vehicle: saline with Tween-80): 98 % of control

CC(=O)Oc1ccc(Nc2c3ccccc3nc3ccccc23)cc1
T/C (endpoint: mean survival time, dose: 44.0 mg/kg/injection, schedule: Q01DX001 (ip), vehicle: saline with Tween-80): 119 % of control | T/C (endpoint: mean survival time, dose: 44.0 mg/kg/injection, schedule: Q01DX009 (ip), vehicle: saline with Tween-80): 155 % of control | T/C (endpoint: mean survival time, dose: 66.0 mg/kg/injection, schedule: Q01DX001 (ip), vehicle: saline with Tween-80): 109 % of control | T/C (endpoint: mean survival time, dose: 66.0 mg/kg/injection, schedule: Q01DX009 (ip), vehicle: saline with Tween-80): 94 % of control | T/C [1]: 152 % of control | T/C [8]: 88 % of control | T/C [10]: 177 % of control
